Source: PubChem BioAssay (NCI)
Where “and” joins values, the source holds several entries; their conditions need not be identical. Equal entries are not always repeated.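 Step 1: Grow cells in 96-well plates. Step 2: Expose to compound for 48 hours at 5 concentrations. Step 3: Interpolate endpoints linearly; if unreached, use highest concentration. At the TGI there is no net growth.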

Experiments:
Assay in all cases: NCI anticancer screen, dose series, 48 h
[1] = tested on: NCI-H460 lung
[2] = tested on: COLO 205 colon
[3] = tested on: MDA-N
[4] = tested on: MDA-MB-435
[5] = tested on: A498 renal
[6] = tested on: NCI-H522 lung
[7] = tested on: KM12 colon
[8] = tested on: HT29 colon
[9] = tested on: LOX IMVI melanoma
[10] = tested on: SF-295 CNS
[11] = tested on: SK-MEL-5 melanoma
[12] = tested on: NCI/ADR-RES ovarian

Compound | TGI [1] | TGI [2] | TGI [3] | TGI [4] | TGI [5] | TGI [6] | TGI [7] | TGI [8] | TGI [9] | TGI [10] | TGI [11] | TGI [12]
COc1ccc2c(c1)CC[C@@H]1C2CC[C@]2(C)C(=C=CP(=O)(O)O)CCC12 (stereo not given in full) | > 100 µM | > 100 µM | > 100 µM | > 100 µM | > 100 µM | > 100 µM | > 100 µM | > 100 µM | > 100 µM | > 100 µM | > 100 µM | > 100 µM
COc1cccc(CCCNC(=O)Cc2ccccc2CO)c1 | > 100 µM | > 100 µM | > 100 µM | > 100 µM | > 100 µM | – | > 100 µM | > 100 µM | > 100 µM | > 100 µM | > 100 µM | > 100 µM
COC(=O)c1ccccc1C1CN=NC12Cc1c(C)ccc(C)c1C2=O (stereo not given) | > 100 µM | > 100 µM | > 100 µM | > 100 µM | > 100 µM | > 100 µM | > 100 µM | > 100 µM | > 100 µM | > 100 µM | > 100 µM | > 100 µM
Cc1cc(=O)n2nc(CSc3nnc(Sc4cc(O)ccc4O)s3)sc2n1 | > 100 µM | > 100 µM | 32.8 µM | 32.7 µM | > 100 µM | 46.2 µM | > 100 µM | > 100 µM | 36.3 µM | > 100 µM | > 100 µM | > 100 µM
COc1cccc(N=NN2CCCC2)c1 | > 100 µM | > 100 µM | > 100 µM | > 100 µM | > 100 µM | > 100 µM | > 100 µM | – | > 100 µM | > 100 µM | > 100 µM | > 100 µM
C=CCOC(=O)N1c2ccc(O)cc2[C@@]23O[C@@]24[C@@H]1C#C/C=C\C#C[C@]3(O)C(=O)C[C@@H]4C | > 100 µM | > 100 µM | > 100 µM | > 100 µM | > 100 µM | > 100 µM | > 100 µM | > 100 µM | – | > 100 µM | > 100 µM | > 100 µM
CC(NNC(=O)c1ccncc1)c1ccc(Cl)cc1Cl (stereo not given) | > 100 µM | > 100 µM | > 100 µM | > 100 µM | > 100 µM | > 100 µM | > 100 µM | > 100 µM | > 100 µM | > 100 µM | > 100 µM | > 100 µM
Cc1cc2occ(S(=O)(=O)NC(=O)Nc3ccc(Cl)cc3)c(=O)c2c(=O)o1 | > 100 µM | > 100 µM | > 100 µM | > 100 µM | > 100 µM | > 100 µM | > 100 µM | > 100 µM | > 100 µM | > 100 µM | > 100 µM | > 100 µM
NC(N)=NCCCC(NC(=O)c1c2ccccc2nc2ccccc12)C(=O)O (stereo not given) | > 100 µM | > 100 µM | > 100 µM | > 100 µM | > 100 µM | > 100 µM | > 100 µM | > 100 µM | > 100 µM | > 100 µM | > 100 µM | > 100 µM
C#CCOC(=O)C(=[N+]=[N-])C(=O)CC(C)C | > 10 µM | > 10 µM | > 10 µM | > 10 µM | > 10 µM | – | > 10 µM | > 10 µM | > 10 µM | > 10 µM | > 10 µM | > 10 µM
N#CC(NNC(=O)c1ccccc1O)c1c(O)ccc2ccccc12 (stereo not given) | 36.8 µM | 23.6 µM | > 63.2 µM | 43.4 µM | > 66 µM | 18.7 µM | > 100 µM | > 87.7 µM | 6.64 µM | 50.5 µM | 10.4 µM | 19.3 µM
CC1CCCN1CCCOC(=O)c1ccc(OC2C=CCCC2)cc1 (stereo not given) | 32.9 µM | 31.4 µM | > 100 µM | > 100 µM | > 100 µM | 54 µM | > 100 µM | 60.4 µM | 36.7 µM | 37.9 µM | 35.2 µM | > 100 µM
CCC(=C/[C@H](C)C/C=C/C(C)=C/[C@@H](C)C(=O)[C@@H](C)[C@H](O)[C@@H](C)CC)/C=C/[C@H]1CC=CC(=O)O1 | 1.26 µM and 1.64 µM | 0.0428 µM | 0.00339 µM | 0.166 µM | < 0.0012 µM | < 0.0012 µM | – | 2.48 µM and 10.7 µM | 1.22 µM | 1.48 µM and 13.8 µM | 0.0182 µM | 1.65 µM and 0.39 µM
Cc1cc(C)n2c(nc3ccccc32)c1C#N | – | > 100 µM | > 100 µM | > 100 µM | > 100 µM | – | – | > 100 µM | > 100 µM | > 100 µM | > 100 µM | > 100 µM
